Compound in one assay: CN(C)C/C=C/C(=O)Nc1cc2c(Nc3ccc(F)c(Cl)c3)ncnc2cc1O[C@H]1CCOC1 [AFATINIB]
Description: surviving fraction relative to DMSO-only wells; higher = less growth inhibition. The note with it: exposure time: 5 days. The essentials: (§1)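 Inhibitors at 0.5, 1, 5, 10, 50, 100, 500 and 1000 nM were applied continuously for five days to tumour cell lines seeded in log phase at 250–500 cells per well in 384-well plates 24 hours earlier. Viability was measured by CellTiter-Glo luminescence and expressed as surviving fraction relative to the median of DMSO-only wells. Luminescence was taken after 10 minutes at room temperature.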

Compound in assay [1]: T1, CNC(=O)c1ccc(N2C(=S)N(c3ccc(C#N)c(C(F)(F)F)c3)C(=O)C2(C)C)cc1F [MDV3100]
The description is as above. Particulars: exposure time: 5 days. The essentials: as §1

Compound in a further assay: CC1(C)CC(=O)c2c(C(F)(F)F)nn(-c3ccc(C(N)=O)c(N[C@H]4CC[C@H](OC(=O)CN)CC4)c3)c2C1 [SNX-5422]
The experiment in a line: area under dose-response curve of surviving fraction (unscaled, Aref=0) (surviving fraction x log10(nM)); higher = more resistant. The note with it: exposure time: 5 days; dose range 0.5-1000 nM. The essentials:
(§2)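 Surviving fractions were fitted by 3-parameter logistic regression in the drc R package to give dose-response survival curves. They came from tumour cell lines treated for five days with eight inhibitor concentrations from 0.5 to 1000 nM and read by CellTiter-Glo luminescence against DMSO-only wells. The area under the curve is the unscaled activity area. It was calculated over log10 dose with Aref = 0.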

Compound in a further assay: CC[C@@H]1C(=O)N(C)c2cnc(Nc3ccc(C(=O)NC4CCN(C)CC4)cc3OC)nc2N1C1CCCC1 [BI-2536]
The description is as above. Particulars: exposure time: 5 days; dose range 0.5-1000 nM. The essentials:
as §2

Compound in assay [2]: T1, MDV3100
The assay is described as above. Particulars: exposure time: 5 days; dose range 0.5-1000 nM. The essentials: as §2

Compound in a further assay: Nc1nc2[nH]cnc2c(=S)[nH]1 [TIOGUANINE]
The description is as above. The note with it: exposure time: 5 days; dose range 0.5-1000 nM. The essentials:
as §2

± gives the standard deviation of the averaged measurements.

Consider CAL120 BREAST, for which the surviving fraction with AFATINIB (0.5 nM) turned out to be 0.955 ± 0.035; with AFATINIB (1 nM), 0.96 ± 0.0041; with AFATINIB (5 nM) it was 0.968 ± 0.035; with AFATINIB (10 nM), 0.928 ± 0.013; in the assay with AFATINIB (50 nM), 0.908 ± 0.032; with AFATINIB (100 nM), 0.852 ± 0.029. The surviving fraction with AFATINIB (500 nM) was determined as 0.671 ± 0.01; in the assay with AFATINIB (1000 nM), 0.471 ± 0.038; in the assay with MDV3100 [1] (0.5 nM), 0.906 ± 0.066; with MDV3100 [1] (1 nM) it was 0.905 ± 0.025; with MDV3100 [1] (5 nM) it was 0.931 ± 0.051; with MDV3100 [1] (10 nM), 0.925 ± 0.077. Further, the surviving fraction with MDV3100 [1] (50 nM) came out at 0.941 ± 0.058; with MDV3100 [1] (100 nM), 0.935 ± 0.042; with MDV3100 [1] (500 nM), 0.953 ± 0.059; with MDV3100 [1] (1000 nM), 0.955 ± 0.025. The “area under dose-response curve” value is 1.77 with SNX-5422, 0.616 with BI-2536, 3.07 in the assay with MDV3100 [2] and 3.05 with TIOGUANINE.

Consider CASKI CERVIX, for which the surviving fraction was determined as 0.715 ± 0.055 with AFATINIB (0.5 nM); 0.522 ± 0.028 with AFATINIB (1 nM); 0.409 ± 0.041 in the assay with AFATINIB (5 nM); 0.274 ± 0.015 in the assay with AFATINIB (10 nM); 0.259 ± 0.0076 with AFATINIB (50 nM); 0.223 ± 0.006 with AFATINIB (100 nM). Also, the surviving fraction with AFATINIB (500 nM) was found to be 0.049 ± 0.007; with AFATINIB (1000 nM), 0.02 ± 0.0017; in the assay with MDV3100 [1] (0.5 nM) it was 0.904 ± 0.031; in the assay with MDV3100 [1] (1 nM), 0.894 ± 0.047; with MDV3100 [1] (5 nM) it was 0.99 ± 0.026; with MDV3100 [1] (10 nM) it was 0.903 ± 0.059. For the same test system, the surviving fraction in the assay with MDV3100 [1] (50 nM) stood at 0.944 ± 0.022; with MDV3100 [1] (100 nM), 1.08 ± 0.073; with MDV3100 [1] (500 nM), 0.95 ± 0.046; with MDV3100 [1] (1000 nM) it was 0.992 ± 0.072. Besides, the “area under dose-response curve” value with SNX-5422 came to 1.63; in the assay with BI-2536 it was 0.43; with MDV3100 [2], 3.17; in the assay with TIOGUANINE, 3.1.

Turning to CME SYNOVIAL, the surviving fraction stood at 1.34 ± 0.1 with AFATINIB (0.5 nM); 1.37 ± 0.18 in the assay with AFATINIB (1 nM); 1.33 ± 0.13 with AFATINIB (5 nM); 1.28 ± 0.17 with AFATINIB (10 nM); 1.44 ± 0.19 with AFATINIB (50 nM); 1.32 ± 0.12 with AFATINIB (100 nM). Also, the surviving fraction in the assay with AFATINIB (500 nM) turned out to be 1.26 ± 0.062; in the assay with AFATINIB (1000 nM), 0.733 ± 0.066; with MDV3100 [1] (0.5 nM), 1.2 ± 0.075; with MDV3100 [1] (1 nM), 0.852 ± 0.11; with MDV3100 [1] (5 nM) it was 1.09 ± 0.089; with MDV3100 [1] (10 nM) it was 0.18 ± 0.044. The surviving fraction with MDV3100 [1] (50 nM) was found to be 1.22 ± 0.053; with MDV3100 [1] (100 nM) it was 1.09 ± 0.13; with MDV3100 [1] (500 nM) it was 1.16 ± 0.1; with MDV3100 [1] (1000 nM) it was 0.451 ± 0.068. Besides, the “area under dose-response curve” value in the assay with SNX-5422 amounted to 2.5; with BI-2536 it was 1.64; with MDV3100 [2], 2.99; with TIOGUANINE it was 3.97.

With COLO320DM LARGE INTESTINE, the surviving fraction with AFATINIB (0.5 nM) amounted to 1.14 ± 0.075; with AFATINIB (1 nM) it was 1.06 ± 0.088; with AFATINIB (5 nM) it was 1.08 ± 0.14; with AFATINIB (10 nM), 1.06 ± 0.073; in the assay with AFATINIB (50 nM), 1.04 ± 0.083; with AFATINIB (100 nM), 1.04 ± 0.08. The surviving fraction with AFATINIB (500 nM) turned out to be 0.872 ± 0.093; with AFATINIB (1000 nM), 0.634 ± 0.037; in the assay with MDV3100 [1] (0.5 nM), 1.18 ± 0.14; with MDV3100 [1] (1 nM), 0.995 ± 0.087; with MDV3100 [1] (5 nM), 1.13 ± 0.022; with MDV3100 [1] (10 nM), 0.533 ± 0.021. For the same test system, the surviving fraction came to 1.13 ± 0.086 in the assay with MDV3100 [1] (50 nM), 1.042 ± 0.0052 with MDV3100 [1] (100 nM), 1.12 ± 0.057 in the assay with MDV3100 [1] (500 nM) and 0.754 ± 0.052 with MDV3100 [1] (1000 nM). Further, the “area under dose-response curve” value was 2.19 with SNX-5422, 1.68 with BI-2536, 3.31 with MDV3100 [2] and 3.52 with TIOGUANINE.

As to G292 BONE, the surviving fraction in the assay with AFATINIB (0.5 nM) is 1 ± 0.064; with AFATINIB (1 nM), 0.998 ± 0.029; with AFATINIB (5 nM) it was 1.07 ± 0.027; with AFATINIB (10 nM) it was 0.995 ± 0.037; with AFATINIB (50 nM), 1.03 ± 0.02; with AFATINIB (100 nM) it was 0.982 ± 0.028. The surviving fraction in the assay with AFATINIB (500 nM) came to 0.717 ± 0.032; with AFATINIB (1000 nM) it was 0.447 ± 0.027; with MDV3100 [1] (0.5 nM), 0.9907 ± 0.009; in the assay with MDV3100 [1] (1 nM) it was 1.03 ± 0.02; in the assay with MDV3100 [1] (5 nM), 1.03 ± 0.059; in the assay with MDV3100 [1] (10 nM) it was 1.02 ± 0.013. The surviving fraction in the assay with MDV3100 [1] (50 nM) is 0.956 ± 0.032; in the assay with MDV3100 [1] (100 nM) it was 0.985 ± 0.036; with MDV3100 [1] (500 nM), 0.961 ± 0.013; with MDV3100 [1] (1000 nM) it was 0.865 ± 0.024. The “area under dose-response curve” value is 2.01 with SNX-5422, 0.883 with BI-2536, 3.25 in the assay with MDV3100 [2] and 3.25 in the assay with TIOGUANINE.

Consider H23 LUNG, for which the surviving fraction in the assay with AFATINIB (0.5 nM) was found to be 0.887 ± 0.035; with AFATINIB (1 nM), 0.817 ± 0.048; in the assay with AFATINIB (5 nM), 0.507 ± 0.024; with AFATINIB (10 nM), 0.42 ± 0.015; with AFATINIB (50 nM) it was 0.387 ± 0.018; with AFATINIB (100 nM), 0.368 ± 0.029. In addition, the surviving fraction was 0.355 ± 0.021 in the assay with AFATINIB (500 nM); 0.288 ± 0.002 with AFATINIB (1000 nM); 0.978 ± 0.013 with MDV3100 [1] (0.5 nM); 0.95 ± 0.0056 in the assay with MDV3100 [1] (1 nM); 0.944 ± 0.03 with MDV3100 [1] (5 nM); 0.942 ± 0.011 with MDV3100 [1] (10 nM). Further, the surviving fraction with MDV3100 [1] (50 nM) is 0.954 ± 0.026; with MDV3100 [1] (100 nM) it was 0.9877 ± 0.0021; with MDV3100 [1] (500 nM), 0.93 ± 0.034; with MDV3100 [1] (1000 nM), 0.891 ± 0.02. Besides, the “area under dose-response curve” value with SNX-5422 stood at 2.03; in the assay with BI-2536 it was 1.66; with MDV3100 [2], 3.13; in the assay with TIOGUANINE, 3.25.

With HCC38 BREAST, the surviving fraction with AFATINIB (0.5 nM) stood at 1.37 ± 0.28; in the assay with AFATINIB (1 nM), 1.23 ± 0.18; with AFATINIB (5 nM), 1.27 ± 0.074; with AFATINIB (10 nM), 1.26 ± 0.044; with AFATINIB (50 nM), 1.2 ± 0.2; with AFATINIB (100 nM), 1.17 ± 0.17. The surviving fraction with AFATINIB (500 nM) was 1 ± 0.18; with AFATINIB (1000 nM) it was 0.749 ± 0.098; in the assay with MDV3100 [1] (0.5 nM), 1.02 ± 0.14; with MDV3100 [1] (1 nM) it was 1.27 ± 0.2; in the assay with MDV3100 [1] (5 nM) it was 1.28 ± 0.038; with MDV3100 [1] (10 nM), 1.1 ± 0.066. The surviving fraction with MDV3100 [1] (50 nM) worked out at 1.25 ± 0.027; in the assay with MDV3100 [1] (100 nM), 1.35 ± 0.11; in the assay with MDV3100 [1] (500 nM), 1.28 ± 0.038; with MDV3100 [1] (1000 nM) it was 1.13 ± 0.19. The “area under dose-response curve” value with SNX-5422 was determined as 1.97; with BI-2536, 1.35; in the assay with MDV3100 [2] it was 4.04; in the assay with TIOGUANINE, 3.75.

Values taken from the supplement of paper PMC6045584.
